The source made the active and inactive calls. The calls are words filed in the database; no cut-off is given here. Square brackets hold non-standard residues; d marks the D form. Peptide text beside a SMILES is read from it. Dip = N[C@H](C(=O)O)C(c1ccccc1)c1ccccc1; hPhe = N[C@@H](CCc1ccccc1)C(=O)O; Tic = O=C(O)[C@@H]1Cc2ccccc2CN1; Pip = O=C(O)[C@@H]1CCCCN1; hSer = N[C@@H](CCO)C(=O)O; Nva = CCC[C@H](N)C(=O)O
Experiments:
[1] = molecular target: T1, Thioredoxin reductase 1, cytoplasmic (Homo sapiens) (UniProt Q16881); experiment: Inhibition of oxidized human TXR1 reductase activity by insulin reduction assay
T1 sequence (whole entry): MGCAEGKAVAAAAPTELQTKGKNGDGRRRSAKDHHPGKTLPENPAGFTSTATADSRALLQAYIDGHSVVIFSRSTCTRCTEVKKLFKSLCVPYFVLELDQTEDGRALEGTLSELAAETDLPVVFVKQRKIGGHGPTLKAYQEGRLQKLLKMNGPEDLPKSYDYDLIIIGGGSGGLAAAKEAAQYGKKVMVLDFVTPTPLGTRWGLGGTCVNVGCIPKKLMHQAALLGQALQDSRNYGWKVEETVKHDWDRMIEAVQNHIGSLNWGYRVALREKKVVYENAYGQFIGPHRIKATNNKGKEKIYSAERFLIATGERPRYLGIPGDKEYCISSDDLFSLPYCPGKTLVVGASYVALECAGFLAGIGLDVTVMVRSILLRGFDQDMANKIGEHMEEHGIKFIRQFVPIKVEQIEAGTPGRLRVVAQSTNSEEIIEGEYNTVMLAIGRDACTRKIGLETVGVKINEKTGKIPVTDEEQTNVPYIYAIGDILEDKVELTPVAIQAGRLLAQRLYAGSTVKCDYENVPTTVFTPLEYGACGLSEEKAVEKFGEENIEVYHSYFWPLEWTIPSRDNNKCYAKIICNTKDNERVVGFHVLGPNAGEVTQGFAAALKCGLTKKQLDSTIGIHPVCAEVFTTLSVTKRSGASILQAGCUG

[2] = molecular target: T2, Thiol:disulfide interchange protein DsbA (Escherichia coli (strain K12), UniProt P0AEG4); experiment: Binding affinity to oxidized Escherichia coli DsbA by isothermal titration calorimetry assay
T2 sequence (P0AEG4 whole entry): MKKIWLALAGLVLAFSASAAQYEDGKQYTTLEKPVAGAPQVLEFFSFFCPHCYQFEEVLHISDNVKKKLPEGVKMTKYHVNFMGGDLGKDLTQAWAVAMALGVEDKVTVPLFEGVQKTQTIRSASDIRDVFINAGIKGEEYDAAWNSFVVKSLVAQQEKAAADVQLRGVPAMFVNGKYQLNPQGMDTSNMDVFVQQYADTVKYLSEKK

[3] = molecular target: T3, Thiol:disulfide interchange protein DsbA (Escherichia coli (strain K12)) (UniProt P0AEG4); experiment: Binding affinity to Escherichia coli DsbA assessed as change in melting temperature at 250 uM by Thermal shift assay
T3 sequence (whole entry): T2 sequence (P0AEG4 whole entry)

[4] = molecular target: T3, Thiol:disulfide interchange protein DsbA (Escherichia coli (strain K12)); experiment: Binding affinity to Escherichia coli DsbA assessed as change in melting temperature at 4 mM by Thermal shift assay
[5] = molecular target: T3, Thiol:disulfide interchange protein DsbA (Escherichia coli (strain K12)); experiment: Binding affinity to Escherichia coli DsbA assessed as change in melting temperature at 125 uM by Thermal shift assay
[6] = molecular target: T3, Thiol:disulfide interchange protein DsbA (Escherichia coli (strain K12)); experiment: Binding affinity to Escherichia coli DsbA assessed as change in melting temperature at 500 uM by Thermal shift assay
[7] = molecular target: T3, Thiol:disulfide interchange protein DsbA (Escherichia coli (strain K12)); experiment: Binding affinity to Escherichia coli DsbA assessed as change in melting temperature at 1 mM by Thermal shift assay
[8] = molecular target: T3, Thiol:disulfide interchange protein DsbA (Escherichia coli (strain K12)); experiment: Binding affinity to Escherichia coli DsbA assessed as change in melting temperature at 2 mM by Thermal shift assay

Row | Kd [2] | Kd ([2]; read-out: Kd) [µM] | further results | Compound
1 | – | – | inhibition [1]: inactive | CC(=O)N1CCC[C@H]1C(=O)N[C@@H](Cc1c[nH]c2ccccc12)C(=O)N[C@@H](C)C(=O)N[C@H](C(=O)N[C@@H](CS)C(=O)N[C@@H](CC(=O)O)C(=O)N[C@@H](CO)C(N)=O)[C@@H](C)O
2 | Not Active | – | – | CCC[C@H](NC(=O)[C@@H](NC(=O)[C@H](C)NC(=O)[C@H](Cc1c[nH]c2ccccc12)NC(=O)[C@@H]1CCCN1C(=O)[C@H](CO)NC(=O)[C@@H]1CCCN1C(C)=O)[C@@H](C)O)C(N)=O (Ac-PSPWAT[Nva]-NH2)
3 | Not Active | – | – | CC(=O)N1CCC[C@H]1C(=O)N[C@@H](CO)C(=O)N1CCC[C@H]1C(=O)N[C@@H](Cc1c[nH]c2ccccc12)C(=O)N[C@@H](C)C(=O)N[C@H](C(=O)N[C@@H](CCO)C(N)=O)[C@@H](C)O (Ac-PSPWAT[hSer]-NH2)
4 | – | 9.7 | – | CC(=O)N1CCC[C@H]1C(=O)N[C@@H](CO)C(=O)N1CCC[C@H]1C(=O)N[C@H](C(=O)N[C@@H](C)C(=O)N[C@H](C(=O)N[C@@H](CS)C(N)=O)[C@@H](C)O)C(c1ccccc1)c1ccccc1 (Ac-PSP[Dip]ATC-NH2)
5 | – | 14.9 | – | CC(=O)N1CCC[C@H]1C(=O)N[C@@H](CO)C(=O)N1CCC[C@H]1C(=O)N[C@@H](CCc1ccccc1)C(=O)N[C@@H](C)C(=O)N[C@H](C(=O)N[C@@H](CS)C(N)=O)[C@@H](C)O (Ac-PSP[hPhe]ATC-NH2)
6 | – | 12 | – | CC(=O)N1CCC[C@H]1C(=O)N[C@@H](CO)C(=O)N1CCCC[C@H]1C(=O)N[C@@H](Cc1c[nH]c2ccccc12)C(=O)N[C@@H](C)C(=O)N[C@H](C(=O)N[C@@H](CS)C(N)=O)[C@@H](C)O (Ac-PS[Pip]WATC-NH2)
7 | – | 13.1 | – | CC(=O)N1CCC[C@H]1C(=O)N[C@@H](CO)C(=O)N1Cc2ccccc2C[C@H]1C(=O)N[C@@H](Cc1c[nH]c2ccccc12)C(=O)N[C@@H](C)C(=O)N[C@H](C(=O)N[C@@H](CS)C(N)=O)[C@@H](C)O (Ac-PS[Tic]WATC-NH2)
8 | – | 8.3 | – | CC(=O)N1CCC[C@H]1C(=O)N[C@@H](CCc1ccccc1)C(=O)N[C@@H](C)C(=O)N[C@H](C(=O)N[C@@H](CS)C(=O)N[C@@H](CC(=O)O)C(=O)N[C@@H](CO)C(N)=O)[C@@H](C)O (Ac-P[hPhe]ATCDS-NH2)
9 | – | 2.7 | – | Ac-ASPWATCDF-NH2
10 | – | 2.8 | – | Ac-PAPWATCDF-NH2
11 | – | 5.9 | – | Ac-PFATCDF-NH2
12 | – | 13.1 | ΔTm [3]: 1.7 °C; ΔTm [4]: 9 °C; ΔTm [5]: 0.6 °C; ΔTm [6]: 3.3 °C; ΔTm [7]: 5.3 °C; ΔTm [8]: 7.2 °C | Ac-PFATCDS-NH2
13 | – | 5.5 | – | Ac-PSAWATCDF-NH2
14 | – | 5.8 | – | Ac-PSPAATCDF-NH2
15 | – | 11.3 | – | Ac-PSPWAACDF-NH2
16 | Not Active | – | – | Ac-PSPWATADF-NH2
17 | – | 18 | – | Ac-PSPWATC-NH2
18 | – | 3.1 | – | Ac-PSPWATCAF-NH2
19 | – | 10.7 | – | Ac-PSPWATCD-NH2
20 | – | 4.4 | – | Ac-PSPWATCDA-NH2
21 | – | 2.9 | – | Ac-PSPWATCDF-NH2
22 | Not Active | – | – | Ac-PSPWATIDF-NH2
23 | Not Active | – | – | Ac-PSPWATM-NH2
24 | Not Active | – | – | Ac-PSPWATN-NH2
25 | Not Active | – | – | Ac-PSPWATSDF-NH2
26 | Not Active | – | – | Ac-PSPWATVDF-NH2
27 | – | 3 | – | Ac-PWATCDF-NH2
28 | Not Active | – | ΔTm [3]: 0.2 °C; ΔTm [4]: 2.9 °C; ΔTm [5]: 0.1 °C; ΔTm [6]: 0.2 °C; ΔTm [7]: 0.6 °C; ΔTm [8]: 1.5 °C | Ac-PWATSDS-NH2
29 | – | 2.2 | – | Ac-SPWATCDF-NH2

— ChEMBL document CHEMBL3396965, “Peptide inhibitors of the Escherichia coli DsbA oxidative machinery essential for bacterial virulence” (J Med Chem, 2015)
